Experimental data as given in paper PMC10535741, “Styrylpyridinium Derivatives for Fluorescent Cell Imaging” (Pharmaceuticals, 2023).

Tested on: NIH3T3 (mouse fibroblast) cell line
Assay: Basal cytotoxicity, neutral red uptake (NRU) assay, with LD50 estimated from IC50
Assay type: cell-based
Experimental: The evaluation of the in vitro cytotoxicity (IC50, half maximal inhibitory concentration) of the abovementioned compounds and their structural derivatives was assessed using the standard colorimetric 3-(4,5-dimethylthiazol-2-yl)-2,5-diphenyltetrazolium bromide (MTT) assay on two monolayer tumour cell lines, namely HT-1080 (human connective tissue fibrosarcoma) and MH-22A (mouse hepatocarcinoma). Additionally, the impact of the compound on non-cancerous “normal” cells—mouse fibroblasts (NIH3T3)—was estimated in order to measure the basal toxicity (LD50, median lethal dose). The obtained results were used for investigation of the structure–activity relationships and exploration of the effect of substituents on cellular response and toxicity. The estimated LD50 gives information regarding the compound properties and could potentially be used to select promising compounds by providing a starting dose for in vivo experiments.
To assess basal cytotoxicity, the neutral red uptake (NRU) assay was conducted following a modified version of the standard protocol of Stokes’ [71], as validated by the NICEATM-ECVAM study. The NRU cytotoxicity assay determines the ability of viable cells to incorporate and bind a supravital dye, neutral red (NR).
NIH3T3 cells (9000 cells/well) were cultured in 96-well plates in DMEM medium supplemented with 5% FBS for 24 h. Subsequently, the cells were exposed to the test compounds over a range of seven concentrations (1000 µg/mL, 316 µg/mL, 100 µg/mL, 31 µg/mL, 10 µg/mL, 3.0 µg/mL, and 1.0 µg/mL) for 24 h. Untreated cells were used as a control. After the incubation period, the medium was removed from all plates and a solution of NR was added (250 µL, 0.05 mg/mL NR in DMEM 24 h pre-incubated at 37 °C and then filtered before use through a 0.22 µm syringe filter). The plates were incubated for 3 h, followed by three washes with phosphate-buffered saline (PBS). The cells were then treated with a mixture of ethanol (50%) and water (49%) supplemented with 1% acetic acid. The absorbance of NR was measured using a spectrophotometer multiplate reader (Infinite M1000; Tecan Austria GmbH, Salzburg, Austria) at 540 nm. The optical density (OD) was then calculated using the following formula: ODtreated cells×100/ODcontrol cells.
The IC50 values were calculated using the program Graph Pad Prism® 3.0.
In vitro test results were employed to estimate the starting dose for acute oral systemic toxicity tests in rodents (LD50). The LD50 value was calculated using the in vitro IC50 value and a following formula: logLD50(mM/kg)=0.439×logIC50(mM)+0.621
The value was then converted to mg/kg and the compounds classified into four toxicity categories. Category 1 (highly toxic): LD50 ≤ 5 mg/kg; Category 2 (moderately toxic): 5 < LD50 ≤ 50 mg/kg; Category 3 (slightly toxic): 50 < LD50 ≤ 300 mg/kg; Category 4 (practically non-toxic): 300 < LD50 ≤ 2000 mg/kg.

CCCCCCCCCCCC[n+]1ccc(C=Cc2cc(OC)c(OC)c(OC)c2)cc1.[Br-] [Compound 6a, 4-(3,4,5-trimethoxystyryl)-N-dodecylpyridinium bromide]
times decrease of basal toxicity of 6a compared with 6d (ratio of LD50 values): 1.5 times

CCCCCCCCCCCCCCCC[n+]1ccc(C=Cc2cc(OC)c(OC)c(OC)c2)cc1.[Br-] [Compound 6b]
times more toxic than 6a, basal toxicity: 2.8 times
Basal cytotoxicity (NIH3T3) LD50 (estimated from in vitro NRU IC50 (24 h) by log LD50 = 0.439 x log IC50 + 0.621): 91 ± 6 mg/kg
Basal cytotoxicity (NIH3T3) LD50 (mouse): 0.15 mM/kg

CCCCCCCCCCCC[n+]1ccc(C=Cc2cc3c4c(c2)CCCN4CCC3)cc1.[Br-] [Compound 6d, 1-dodecyl-4-(2-(2,3,6,7-tetrahydro-1H,5H-pyrido[3,2,1-ij]quinolin-9-yl)vinyl)pyridin-1-ium bromide]
times higher basal cytotoxicity than compound 7a (6d versus 7a): 6.5 times

CCCCCCCCCCCCCCCC[n+]1ccc(C=CC=Cc2cc3c4c(c2)CCCN4CCC3)cc1.[Br-] [Compound 6e, 1-hexadecyl-4-(4-(2,3,6,7-tetrahydro-1H,5H-pyrido[3,2,1-ij]quinolin-9-yl)buta-1,3-dien-1-yl)pyridin-1-ium bromide]
times lower basal cytotoxicity than 6d (6e versus 6d): ~ 2.8 times
basal toxicity classification in words (from estimated LD50, NIH3T3): harmful
